This passage reports AC50 results from ChEMBL document CHEMBL5291721, “A preclinical secondary pharmacology resource illuminates target-adverse drug reaction associations of marketed drugs” (Nat Commun, 2023).

Each structure is given as a SMILES string. A value given as a limit tells only on which side of the number the result lay.

Usually AC50 stands for the concentration at which the activity in the assay is half-maximal.

One assay concerns the target Cannabinoid receptor 1 (Homo sapiens, UniProt P21554).
A further assay deals with Vasopressin V1a receptor (Homo sapiens, UniProt P37288).
In assay [1] the target is Delta-type opioid receptor (Homo sapiens, UniProt P41143).
The target in assay [2] is T1, D(1A) dopamine receptor (Homo sapiens, UniProt P21728). In kind it is functional, cell-based.
The target in assay [3] is Sodium-dependent noradrenaline transporter (Homo sapiens, UniProt P23975).
Assay [4] concerns the target T2, Prostaglandin G/H synthase 1 (Rattus norvegicus, UniProt Q63921).
T2 sequence (Q63921 whole entry): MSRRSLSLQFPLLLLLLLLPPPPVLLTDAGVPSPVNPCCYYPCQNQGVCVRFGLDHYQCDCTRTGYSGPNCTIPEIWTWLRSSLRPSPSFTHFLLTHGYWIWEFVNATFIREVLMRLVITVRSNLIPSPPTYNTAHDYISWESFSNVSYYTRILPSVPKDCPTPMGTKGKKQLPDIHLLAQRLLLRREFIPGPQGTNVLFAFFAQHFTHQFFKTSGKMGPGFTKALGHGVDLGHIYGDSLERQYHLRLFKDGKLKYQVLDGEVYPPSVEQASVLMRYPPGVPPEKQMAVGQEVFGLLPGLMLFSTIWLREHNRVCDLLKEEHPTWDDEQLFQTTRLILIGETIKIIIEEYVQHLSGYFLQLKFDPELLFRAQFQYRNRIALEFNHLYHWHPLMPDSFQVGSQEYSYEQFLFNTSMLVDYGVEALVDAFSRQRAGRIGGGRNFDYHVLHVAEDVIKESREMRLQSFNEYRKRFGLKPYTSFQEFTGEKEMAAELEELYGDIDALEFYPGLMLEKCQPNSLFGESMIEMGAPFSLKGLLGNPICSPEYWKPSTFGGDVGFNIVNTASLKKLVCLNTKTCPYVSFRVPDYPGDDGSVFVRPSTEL
In kind it is functional.

Assay [5] addresses T3, Mu-type opioid receptor (Homo sapiens, UniProt P35372).
Assay [6] deals with T4, Muscarinic acetylcholine receptor M2 (Homo sapiens, UniProt P08172).
T4 sequence (P08172 whole entry): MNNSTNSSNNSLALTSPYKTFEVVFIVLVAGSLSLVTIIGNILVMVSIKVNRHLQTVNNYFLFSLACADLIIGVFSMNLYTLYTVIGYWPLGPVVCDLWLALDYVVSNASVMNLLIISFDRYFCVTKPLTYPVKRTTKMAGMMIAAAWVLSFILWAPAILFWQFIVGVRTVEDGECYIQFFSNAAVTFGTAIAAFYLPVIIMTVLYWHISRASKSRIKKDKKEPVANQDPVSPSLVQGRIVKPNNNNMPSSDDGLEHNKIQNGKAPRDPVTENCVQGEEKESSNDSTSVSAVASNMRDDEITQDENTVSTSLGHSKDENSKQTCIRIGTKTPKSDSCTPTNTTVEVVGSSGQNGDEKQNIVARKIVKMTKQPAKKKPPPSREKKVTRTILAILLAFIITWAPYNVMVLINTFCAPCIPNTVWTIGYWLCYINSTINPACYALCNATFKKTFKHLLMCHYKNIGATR
In kind it is functional, cell-based.

For another assay, the target named is T5, Estrogen receptor (Homo sapiens, UniProt P03372).
T5 sequence (P03372 whole entry): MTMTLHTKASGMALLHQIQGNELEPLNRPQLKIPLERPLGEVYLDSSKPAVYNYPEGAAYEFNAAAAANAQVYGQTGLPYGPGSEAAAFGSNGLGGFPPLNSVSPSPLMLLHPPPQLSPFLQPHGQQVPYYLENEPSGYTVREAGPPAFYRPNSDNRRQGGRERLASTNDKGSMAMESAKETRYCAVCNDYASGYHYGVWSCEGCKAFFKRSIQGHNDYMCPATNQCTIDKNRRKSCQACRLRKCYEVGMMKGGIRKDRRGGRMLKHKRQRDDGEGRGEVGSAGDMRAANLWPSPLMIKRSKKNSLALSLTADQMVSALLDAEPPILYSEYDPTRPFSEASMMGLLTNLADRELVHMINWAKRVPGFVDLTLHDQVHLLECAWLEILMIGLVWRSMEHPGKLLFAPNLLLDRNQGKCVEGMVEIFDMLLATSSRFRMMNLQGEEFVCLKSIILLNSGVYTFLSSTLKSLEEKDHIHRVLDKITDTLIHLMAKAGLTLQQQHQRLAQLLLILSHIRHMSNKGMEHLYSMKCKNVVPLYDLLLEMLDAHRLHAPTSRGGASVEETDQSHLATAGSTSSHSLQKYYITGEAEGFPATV

The target of assay [7] is T6, Alpha-1A adrenergic receptor (Homo sapiens, UniProt P35348).
T6 sequence (P35348 whole entry): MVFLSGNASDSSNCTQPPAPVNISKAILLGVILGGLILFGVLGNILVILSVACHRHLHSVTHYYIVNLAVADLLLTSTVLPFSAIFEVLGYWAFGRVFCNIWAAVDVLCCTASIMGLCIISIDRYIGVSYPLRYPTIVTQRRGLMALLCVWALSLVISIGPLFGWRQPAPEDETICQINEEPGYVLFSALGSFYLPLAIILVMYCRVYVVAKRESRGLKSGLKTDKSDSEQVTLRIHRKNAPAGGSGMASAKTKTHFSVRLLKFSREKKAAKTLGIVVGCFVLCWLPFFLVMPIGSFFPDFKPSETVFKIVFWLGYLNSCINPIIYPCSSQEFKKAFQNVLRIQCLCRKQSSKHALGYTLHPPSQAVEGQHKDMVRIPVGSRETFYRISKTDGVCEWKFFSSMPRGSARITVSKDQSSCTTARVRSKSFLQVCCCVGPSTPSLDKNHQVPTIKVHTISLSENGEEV
It counts as functional, cell-based.

The target in assay [8] is Prostaglandin G/H synthase 1 (Homo sapiens, UniProt P23219). In kind it is functional.
For assay [9], the target named is T3, Mu-type opioid receptor. This is another data set of the same source.
The target of assay [10] is T1, D(1A) dopamine receptor.
Also: assay procedure not described here.

T1 sequence (P21728 whole entry): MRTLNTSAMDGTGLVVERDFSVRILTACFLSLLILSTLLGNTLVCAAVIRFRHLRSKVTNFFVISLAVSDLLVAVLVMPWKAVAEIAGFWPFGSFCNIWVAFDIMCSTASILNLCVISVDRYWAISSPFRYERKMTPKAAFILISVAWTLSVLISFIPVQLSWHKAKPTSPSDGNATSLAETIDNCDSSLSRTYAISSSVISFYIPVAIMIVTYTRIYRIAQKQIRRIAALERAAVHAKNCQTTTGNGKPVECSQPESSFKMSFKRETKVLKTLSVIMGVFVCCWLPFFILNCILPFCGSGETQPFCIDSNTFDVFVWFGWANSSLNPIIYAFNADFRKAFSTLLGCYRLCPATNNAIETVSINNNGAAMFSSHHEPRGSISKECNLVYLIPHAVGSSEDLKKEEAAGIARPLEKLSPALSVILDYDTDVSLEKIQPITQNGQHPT
T3 sequence (P35372 whole entry): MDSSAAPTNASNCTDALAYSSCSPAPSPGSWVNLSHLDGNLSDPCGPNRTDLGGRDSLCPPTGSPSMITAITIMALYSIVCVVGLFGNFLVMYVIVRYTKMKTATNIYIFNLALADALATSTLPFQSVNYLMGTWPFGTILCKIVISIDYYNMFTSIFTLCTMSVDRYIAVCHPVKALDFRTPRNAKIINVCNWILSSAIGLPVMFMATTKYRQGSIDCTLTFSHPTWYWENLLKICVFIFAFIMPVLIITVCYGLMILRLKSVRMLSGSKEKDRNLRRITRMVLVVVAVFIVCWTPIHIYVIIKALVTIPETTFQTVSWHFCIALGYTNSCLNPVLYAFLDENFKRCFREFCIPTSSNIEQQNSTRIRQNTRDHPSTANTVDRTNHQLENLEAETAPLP
Delta-type opioid receptor, sequence (P41143 whole entry): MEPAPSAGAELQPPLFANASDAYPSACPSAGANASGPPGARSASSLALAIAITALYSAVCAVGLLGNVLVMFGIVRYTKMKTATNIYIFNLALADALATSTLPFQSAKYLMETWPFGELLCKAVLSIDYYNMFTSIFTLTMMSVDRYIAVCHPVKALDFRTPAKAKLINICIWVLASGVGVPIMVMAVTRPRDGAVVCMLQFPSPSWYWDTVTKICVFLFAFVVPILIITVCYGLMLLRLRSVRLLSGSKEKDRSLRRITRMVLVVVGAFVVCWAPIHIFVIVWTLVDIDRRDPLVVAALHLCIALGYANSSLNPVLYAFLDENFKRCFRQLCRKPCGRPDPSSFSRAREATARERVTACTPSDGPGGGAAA
Vasopressin V1a receptor, sequence (P37288 whole entry): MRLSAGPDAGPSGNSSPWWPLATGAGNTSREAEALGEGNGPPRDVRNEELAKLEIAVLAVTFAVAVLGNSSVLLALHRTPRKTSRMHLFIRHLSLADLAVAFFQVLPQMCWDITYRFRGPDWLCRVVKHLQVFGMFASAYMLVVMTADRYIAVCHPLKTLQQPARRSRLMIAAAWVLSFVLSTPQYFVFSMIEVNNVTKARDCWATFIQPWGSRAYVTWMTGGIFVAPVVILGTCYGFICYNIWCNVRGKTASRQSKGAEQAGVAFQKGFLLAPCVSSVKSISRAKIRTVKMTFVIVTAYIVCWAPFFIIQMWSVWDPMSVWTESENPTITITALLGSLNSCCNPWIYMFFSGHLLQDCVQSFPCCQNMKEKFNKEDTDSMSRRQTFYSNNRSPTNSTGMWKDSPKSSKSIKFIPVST
Sodium-dependent noradrenaline transporter, sequence (P23975 whole entry): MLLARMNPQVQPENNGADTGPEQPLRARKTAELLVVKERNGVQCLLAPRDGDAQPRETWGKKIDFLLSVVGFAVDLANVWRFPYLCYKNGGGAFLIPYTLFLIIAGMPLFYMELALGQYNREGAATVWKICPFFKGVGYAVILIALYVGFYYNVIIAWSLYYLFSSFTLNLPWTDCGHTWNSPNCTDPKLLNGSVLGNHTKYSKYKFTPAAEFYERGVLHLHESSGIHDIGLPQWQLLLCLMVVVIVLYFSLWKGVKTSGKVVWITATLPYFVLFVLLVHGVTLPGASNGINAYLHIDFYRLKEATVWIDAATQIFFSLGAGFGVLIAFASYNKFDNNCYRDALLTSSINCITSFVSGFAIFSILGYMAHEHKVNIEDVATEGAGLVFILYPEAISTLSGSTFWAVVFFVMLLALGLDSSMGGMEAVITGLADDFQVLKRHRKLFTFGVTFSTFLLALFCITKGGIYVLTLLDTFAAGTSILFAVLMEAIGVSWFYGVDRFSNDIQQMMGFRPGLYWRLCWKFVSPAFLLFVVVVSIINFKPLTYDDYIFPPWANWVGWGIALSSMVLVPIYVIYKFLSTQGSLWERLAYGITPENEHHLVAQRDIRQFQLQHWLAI
Cannabinoid receptor 1, sequence (P21554 whole entry): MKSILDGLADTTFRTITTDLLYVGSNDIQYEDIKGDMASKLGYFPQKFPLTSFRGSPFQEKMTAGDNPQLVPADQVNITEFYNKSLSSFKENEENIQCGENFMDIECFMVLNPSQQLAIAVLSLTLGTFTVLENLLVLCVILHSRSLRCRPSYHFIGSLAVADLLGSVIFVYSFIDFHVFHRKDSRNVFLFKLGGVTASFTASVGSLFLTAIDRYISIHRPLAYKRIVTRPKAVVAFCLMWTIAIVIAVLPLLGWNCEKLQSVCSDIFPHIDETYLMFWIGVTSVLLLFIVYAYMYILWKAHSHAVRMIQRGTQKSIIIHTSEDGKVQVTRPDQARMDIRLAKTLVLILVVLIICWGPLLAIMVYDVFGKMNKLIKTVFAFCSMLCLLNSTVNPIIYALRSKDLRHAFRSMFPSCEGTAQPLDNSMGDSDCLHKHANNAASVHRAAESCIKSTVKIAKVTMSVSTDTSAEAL
Prostaglandin G/H synthase 1 (Homo sapiens, UniProt P23219), sequence (P23219 whole entry): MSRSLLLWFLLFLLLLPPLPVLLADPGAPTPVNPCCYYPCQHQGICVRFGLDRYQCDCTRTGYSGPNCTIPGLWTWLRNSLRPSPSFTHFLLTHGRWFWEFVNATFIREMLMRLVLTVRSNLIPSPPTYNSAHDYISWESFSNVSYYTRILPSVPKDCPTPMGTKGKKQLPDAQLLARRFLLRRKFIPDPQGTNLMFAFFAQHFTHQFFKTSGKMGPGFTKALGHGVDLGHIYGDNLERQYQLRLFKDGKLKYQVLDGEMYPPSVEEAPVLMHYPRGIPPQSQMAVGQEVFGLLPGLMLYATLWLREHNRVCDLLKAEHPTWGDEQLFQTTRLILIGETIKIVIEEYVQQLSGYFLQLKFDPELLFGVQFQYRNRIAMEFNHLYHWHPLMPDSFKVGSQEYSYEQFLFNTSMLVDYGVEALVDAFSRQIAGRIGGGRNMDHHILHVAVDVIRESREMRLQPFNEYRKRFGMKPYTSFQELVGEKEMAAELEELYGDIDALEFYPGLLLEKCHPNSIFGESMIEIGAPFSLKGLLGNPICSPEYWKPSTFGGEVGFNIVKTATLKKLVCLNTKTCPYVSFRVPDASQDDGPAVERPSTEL

Turning to `C[N+]1(C)CCC(=C(c2ccccc2)c2ccccc2)CC1`, the AC50 at Cannabinoid receptor 1 is greater than 10 µM; on Vasopressin V1a receptor, greater than 30 µM; in [1], greater than 30 µM; on D(1A) dopamine receptor [2] it was greater than 10 µM; in assay [3], greater than 10 µM; in assay [4], greater than 10 µM. Moreover, the AC50 at Mu-type opioid receptor [5] was greater than 30 µM.
As for `Cc1ccccc1-n1c(CF)nc2ccc(N)cc2c1=O` [AFLOQUALONE], the AC50 on Cannabinoid receptor 1 is greater than 10 µM; in assay [6], greater than 10 µM; on Vasopressin V1a receptor it was greater than 30 µM; in assay [1], greater than 30 µM; at D(1A) dopamine receptor [2], greater than 30 µM; in assay [3], greater than 30 µM. Moreover, the AC50 in [4] was 27.9 µM; on Mu-type opioid receptor [5], greater than 30 µM.
Take `CCC1(c2ccc(N)cc2)CCC(=O)NC1=O` (stereo unspecified) [AMINOGLUTETHIMIDE]: the half-maximal activity concentration (AC50) (in [6]; in assay [1]; at D(1A) dopamine receptor [2]; in assay [3]; in assay [4]; at Mu-type opioid receptor [5]) was greater than 30 µM throughout.
Regarding `CC(Cc1cccc(C(F)(F)F)c1)NCCOC(=O)c1ccccc1` (stereo unspecified) [BENFLUOREX], the AC50 at Vasopressin V1a receptor was greater than 30 µM; in assay [1], greater than 30 µM; at D(1A) dopamine receptor [2] it was greater than 30 µM; in assay [3], 23 µM; on Mu-type opioid receptor [5], 17 µM.
Take `CCOC(=O)c1ccc(N)cc1` [BENZOCAINE]: the AC50 at Cannabinoid receptor 1 is greater than 10 µM; in assay [6], greater than 10 µM; in assay [1] it was greater than 30 µM; on D(1A) dopamine receptor [2], greater than 10 µM; in [3] it was greater than 10 µM; in assay [4], greater than 10 µM. For the same compound, the half-maximal activity concentration (AC50) on Mu-type opioid receptor [5] is greater than 30 µM.
As for `O=C(O)COCCN1CCN(C(c2ccccc2)c2ccc(Cl)cc2)CC1` (stereo unspecified) [CETIRIZINE], the AC50 at Cannabinoid receptor 1 was greater than 10 µM; at Vasopressin V1a receptor it was greater than 10 µM; on Estrogen receptor, greater than 30 µM; in assay [1], greater than 30 µM; in assay [7] it was greater than 30 µM.
As to `CC(=O)O[C@]1(C(C)=O)CC[C@H]2[C@@H]3C=C(Cl)C4=CC(=O)[C@@H]5C[C@@H]5[C@]4(C)[C@H]3CC[C@@]21C` [CYPROTERONE ACETATE], the AC50 on Cannabinoid receptor 1 was greater than 10 µM; in assay [8] it was greater than 30 µM; at Vasopressin V1a receptor, greater than 10 µM; in assay [1], greater than 30 µM; at Mu-type opioid receptor [9], greater than 30 µM; in assay [3], greater than 30 µM. Further, the AC50 (in assay [4]; on D(1A) dopamine receptor [10]; at Mu-type opioid receptor [5]; in assay [7]) was greater than 30 µM each time.
Regarding `CN[C@]1(c2ccccc2Cl)CCCCC1=O` [ESKETAMINE], the AC50 (at Cannabinoid receptor 1; in assay [6]; at Vasopressin V1a receptor; on Estrogen receptor; in assay [1]; on D(1A) dopamine receptor [2]) was greater than 30 µM throughout. Moreover, the AC50 in assay [3] and in assay [4] was greater than 30 µM throughout.
`CN(C)CCCN1c2ccccc2CCc2ccccc21` [IMIPRAMINE]: the AC50 on Cannabinoid receptor 1 is 0.174 µM; in assay [6] it was greater than 10 µM; on Vasopressin V1a receptor, greater than 10 µM; in assay [1], greater than 10 µM; on D(1A) dopamine receptor [2] it was greater than 10 µM; in assay [4], greater than 30 µM. Besides, on Mu-type opioid receptor [5], the AC50 came to 8.1 µM.
For `Cc1ccccc1N1C(=O)c2cc(S(N)(=O)=O)c(Cl)cc2NC1C` (stereo unspecified) [METOLAZONE], the AC50 on Cannabinoid receptor 1 is greater than 10 µM; in assay [6], greater than 10 µM; in [1] it was greater than 30 µM; at D(1A) dopamine receptor [2] it was greater than 10 µM; in assay [3], greater than 10 µM; in assay [4], greater than 10 µM. Besides, the AC50 on Mu-type opioid receptor [5] is greater than 30 µM.
As to `O=C1c2cccc3c2[C@H](CCC3)CN1[C@@H]1CN2CCC1CC2` [PALONOSETRON], the AC50 (on Cannabinoid receptor 1; in assay [6]; at Vasopressin V1a receptor; on Estrogen receptor; in assay [1]; at D(1A) dopamine receptor [2]) was greater than 30 µM in each case. Besides, the half-maximal activity concentration (AC50) in assay [3] and in [4] was greater than 30 µM in each case.
With `CC(C)c1cccc(C(C)C)c1O` [PROPOFOL], the AC50 in assay [6] is greater than 30 µM; in assay [1] it was greater than 30 µM; at D(1A) dopamine receptor [2], greater than 30 µM; in [3], greater than 30 µM; in [4] it was greater than 3 µM; at Mu-type opioid receptor [5], greater than 30 µM.
With `CN[C@@H](C)[C@@H](O)c1ccccc1` [PSEUDOEPHEDRINE], the AC50 in assay [6] is greater than 10 µM; at Vasopressin V1a receptor, greater than 10 µM; at Estrogen receptor, greater than 30 µM; in [1], greater than 30 µM; on D(1A) dopamine receptor [2] it was greater than 10 µM; in [3], greater than 10 µM. The AC50 (in [4]; on Mu-type opioid receptor [5]) was greater than 30 µM each time.
As to `CCCN1CC(NS(=O)(=O)N(CC)CC)CC2Cc3c(O)cccc3CC21` (stereo unspecified) [QUINAGOLIDE], the AC50 is greater than 30 µM in assay [6]; greater than 30 µM at Vasopressin V1a receptor; greater than 30 µM on Estrogen receptor; greater than 30 µM in [1]; 0.15 µM at D(1A) dopamine receptor [2]; 21 µM in assay [3]. Further, the AC50 in assay [4] was greater than 30 µM.
With `C[C@]12CCC(=O)C[C@@H]1CC[C@@H]1[C@@H]2CC[C@]2(C)[C@@H](O)CC[C@@H]12` [STANOLONE], the concentration at half-maximal activity (AC50) (at Cannabinoid receptor 1; in assay [6]; in assay [1]; on D(1A) dopamine receptor [2]; in assay [3]; in [4]) was greater than 30 µM in each case.
In the case of `O=S1(=O)CCN(CN2CCS(=O)(=O)NC2)CN1` [TAUROLIDINE], the AC50 (in assay [8]; in assay [6]; on Estrogen receptor; in assay [1]; on D(1A) dopamine receptor [2]; on Mu-type opioid receptor [9]) was greater than 30 µM throughout. Further, the AC50 (in [3]; in assay [4]; at D(1A) dopamine receptor [10]) was greater than 30 µM throughout.
As for `CCOC(=O)c1c(CSc2ccccc2)n(C)c2cc(Br)c(O)c(CN(C)C)c12` [UMIFENOVIR], the AC50 in [6] is greater than 30 µM; on Vasopressin V1a receptor, greater than 30 µM; on Estrogen receptor it was greater than 30 µM; in [1], greater than 30 µM; at D(1A) dopamine receptor [2], greater than 30 µM; in [3] it was 21 µM. Also, the AC50 in assay [4] was 19 µM.
